Source: PMC10253817, “Design, Pharmacological Characterization, and Molecular Docking of Minimalist Peptidomimetic Antagonists of α4β1 Integrin” (International Journal of Molecular Sciences, 2023)

Key:
α4β1 integrin [1] = molecular target: T1, α4β1 integrin (Homo sapiens, UniProt P05556+P13612); assay: α4β1 integrin-mediated Jurkat E6.1 cell adhesion to FN; format: cell-based; details: Jurkat E6.1 cell adhesion to FN (10 μg/mL); antag. = reduced cell adhesion; mean ± SD
T1 construct: Jurkat E6.1 cell line, which endogenously expresses α4β1 integrin; host or cells: Jurkat E6.1
T1 sequence (P13612 34-1032): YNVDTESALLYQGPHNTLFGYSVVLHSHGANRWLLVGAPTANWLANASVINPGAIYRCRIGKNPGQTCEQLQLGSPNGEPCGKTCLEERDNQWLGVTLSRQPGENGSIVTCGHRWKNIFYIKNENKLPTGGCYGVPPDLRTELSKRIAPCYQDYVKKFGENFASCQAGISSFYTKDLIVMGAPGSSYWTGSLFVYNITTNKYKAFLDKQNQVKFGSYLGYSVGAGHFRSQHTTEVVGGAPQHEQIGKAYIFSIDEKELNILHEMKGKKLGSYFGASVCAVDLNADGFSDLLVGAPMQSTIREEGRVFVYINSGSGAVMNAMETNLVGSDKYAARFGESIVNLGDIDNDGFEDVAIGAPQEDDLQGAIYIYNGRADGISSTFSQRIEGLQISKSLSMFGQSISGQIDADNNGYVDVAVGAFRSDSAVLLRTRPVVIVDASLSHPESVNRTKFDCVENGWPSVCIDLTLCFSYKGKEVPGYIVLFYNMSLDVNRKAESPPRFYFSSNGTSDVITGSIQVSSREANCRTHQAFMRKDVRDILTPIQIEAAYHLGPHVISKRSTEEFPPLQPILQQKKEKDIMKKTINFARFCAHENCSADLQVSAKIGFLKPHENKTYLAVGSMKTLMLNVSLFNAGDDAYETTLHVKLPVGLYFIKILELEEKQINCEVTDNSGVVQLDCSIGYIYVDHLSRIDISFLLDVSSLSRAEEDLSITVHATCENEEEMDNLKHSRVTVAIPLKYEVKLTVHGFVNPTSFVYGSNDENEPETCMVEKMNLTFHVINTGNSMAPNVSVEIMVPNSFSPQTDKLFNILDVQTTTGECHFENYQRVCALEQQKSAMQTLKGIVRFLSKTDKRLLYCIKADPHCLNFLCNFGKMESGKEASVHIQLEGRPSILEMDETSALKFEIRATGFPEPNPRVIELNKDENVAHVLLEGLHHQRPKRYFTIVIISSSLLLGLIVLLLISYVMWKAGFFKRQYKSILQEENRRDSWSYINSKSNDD
T1 sequence (P05556 21-798): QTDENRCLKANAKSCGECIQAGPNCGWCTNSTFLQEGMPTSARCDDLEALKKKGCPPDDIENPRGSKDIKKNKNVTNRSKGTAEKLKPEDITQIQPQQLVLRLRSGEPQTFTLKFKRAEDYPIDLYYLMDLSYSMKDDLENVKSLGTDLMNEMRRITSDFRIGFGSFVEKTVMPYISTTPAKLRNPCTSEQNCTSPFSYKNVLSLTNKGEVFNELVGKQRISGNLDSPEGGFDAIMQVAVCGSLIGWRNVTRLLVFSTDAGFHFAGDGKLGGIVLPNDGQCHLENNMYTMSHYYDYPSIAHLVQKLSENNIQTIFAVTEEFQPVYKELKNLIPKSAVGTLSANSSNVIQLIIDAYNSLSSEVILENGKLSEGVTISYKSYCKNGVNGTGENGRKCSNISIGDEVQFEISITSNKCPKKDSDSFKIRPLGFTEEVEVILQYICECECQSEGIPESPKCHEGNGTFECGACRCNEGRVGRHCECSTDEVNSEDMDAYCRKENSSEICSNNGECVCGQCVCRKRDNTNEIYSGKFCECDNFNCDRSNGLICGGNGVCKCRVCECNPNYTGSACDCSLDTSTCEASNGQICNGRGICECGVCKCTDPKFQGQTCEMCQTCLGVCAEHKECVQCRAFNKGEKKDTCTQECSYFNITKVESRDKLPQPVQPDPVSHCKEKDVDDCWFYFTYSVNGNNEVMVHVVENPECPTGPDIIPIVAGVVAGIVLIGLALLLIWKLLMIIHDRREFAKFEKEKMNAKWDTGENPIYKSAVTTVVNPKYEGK
Experimental: To investigate the ability of the new peptides to modulate integrin-mediated cell adhesion, we employed cell adhesion assays using a Jurkat E6.1 cell line, which endogenously expresses α4β1 integrin and the natural ligand FN. […] On the contrary, ligands able to increase cell adhesion are defined as agonists.
The assays were performed as previously described. Briefly, regarding adhesion assays on Jurkat E6.1 or HL-60 cells, black 96-well plates (Corning Costar) were coated overnight at 4 °C with FN or Fg (10 μg/mL) or VCAM-1 (2 μg/mL) in order to investigate α4β1 integrin-mediated cell adhesion. To avoid any kind of unspecific binding, plates were incubated with 100 μL/well of blocking solution (1% BSA in HBSS) for 30 min at 37 °C. Cells were counted, stained with the CellTracker green CMFDA (12.5 μM, 30 min at 37 °C, Life Technologies Italia, Milan, Italy) and after three washes, were preincubated with increasing concentrations of new compounds (10^−10–10^−4 M) or with the vehicle (methanol) for 30 min at 37 °C.
Then, cells were plated (500,000/well) on coated wells and incubated for 30 min at 37 °C. Afterwards nonadherent cells were removed via washing with a blocking solution, and the remaining adhered cells were lysed with 0.5% Triton X-100 in PBS (30 min at 4 °C). Green fluorescence was measured (Ex485 nm/Em535 nm) using an EnSpire Multimode Plate Reader (PerkinElmer, Waltham, MA, USA).
In both types of adhesion assay, the number of adherent cells was determined via comparison with a standard curve made in the same plate. Experiments were carried out in quadruplicate and repeated at least three times. Data analysis and EC50 or IC50 values were calculated using GraphPad Prism 9.5.1 (GraphPad Software, San Diego, CA, USA).

α4β1 integrin [2] = molecular target: T1, α4β1 integrin; assay: HUTS-21 monoclonal antibody binding (α4β1 integrin conformation), flow cytometry; format: cell-based; details: Jurkat E6.1 cells; compounds 1–100 nM; FN 10 µg/mL; versus vehicle
Description: Integrin functions are regulated by a number of conformational changes in the protein itself. […] Conformational changes can be evaluated by using conformationally sensitive antibodies which specifically recognize epitopes exposed only in a defined structural conformation. To better depict peptidomimetics–α4β1 integrin interactions, we employed PE-conjugated HUTS-21 mAb that recognizes an epitope mapped to the hybrid domain of the β1 subunit.
Conversely, antagonists 3, 8, and 13, although binding to α4β1 integrin as previously shown, were not able to induce any conformational rearrangement, showing very low binding of HUTS-21 mAb.
Flow cytometry analysis was performed as previously described, with the following modifications. Jurkat E6.1 cells were resuspended in 1% BSA in HBSS (50,000 cells/sample); then, FN (10 μg/mL) and two concentrations of the best peptidomimetics (100–1 nM) were added to the cells for 30 min. Thereafter, phycoerythrin (PE)-conjugated, conformational-sensitive HUTS-21 mAb (PE mouse anti-human CD29 antibody, Becton Dickinson Italia, Milan, Italy) (20 μL/sample) was added for 45 min at room temperature; after two washes, Jurkat E6.1 cells were suspended in PBS, and 10,000 cells/sample were acquired in a Guava®EasyCyte Flow Cytometer. The data are presented as the mean fluorescence intensity (MFI). Data were normalized with the relative fluorescence for nonspecific binding evaluated by exposing the cells to an isotype control mAb set to 0.

Row | IC50 (α4β1 integrin [1]) [nM] | SMILES | binding of HUTS-21 mAb (MFI) (α4β1 integrin [2])
1 | 416 | Cc1ccccc1NC(=O)Nc1ccc(CNC(=O)C[C@@H](C)NC(=O)CC(=O)O)cc1 [compound 13] | not able to increase the binding of HUTS-21 mAb
2 | – | CC(=O)N[C@@H](CNC(=O)Cc1ccc(NC(=O)Nc2ccccc2C)cc1)C(=O)NCC(=O)O [compound 3] | not able to increase the binding of HUTS-21 mAb
3 | – | CCCNC(=O)[C@@H](CC(=O)NCC(=O)O)NC(=O)Cc1ccc(NC(=O)Nc2ccccc2C)cc1 [compound 8] | not able to increase the binding of HUTS-21 mAb
